Measured values: paper PMC2949447 (The Journal of steroid biochemistry and molecular biology, 2010)

Legend:
[1] = test system: castrate immature male Sprague-Dawley rats; assay: sc androgenic assay in castrate immature rats; assay type: in vivo, rat
[2] = molecular target: T1, rat AR ligand binding domain (ARLBD) (Rattus norvegicus, UniProt P15207); assay: Competitive binding to purified rat AR ligand binding domain; conditions: RBA = IC50 R1881/IC50 test compound X 100; R1881 defined as 100%
T1 sequence (P15207 651-882 limits assumed): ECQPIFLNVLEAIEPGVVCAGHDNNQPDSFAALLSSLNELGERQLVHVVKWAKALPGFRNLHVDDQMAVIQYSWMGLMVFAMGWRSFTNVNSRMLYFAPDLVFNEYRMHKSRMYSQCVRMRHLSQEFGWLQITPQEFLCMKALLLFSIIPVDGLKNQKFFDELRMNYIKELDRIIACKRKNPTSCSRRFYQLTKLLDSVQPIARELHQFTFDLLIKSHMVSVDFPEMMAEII

[3] = Serum androgen levels by RIA in androgen ± dutasteride treated rats; conditions: for effect of concurrent DUT on serum level of the administered androgen: androgen sc ± DUT 1.0 mg/day orally, blood 2 h after final dose; for serum DHT levels: n=10
[4] = test system: castrate immature male Sprague-Dawley rats; assay: Effect of dutasteride in the sc androgenic assay; assay type: in vivo, rat; conditions: 8 days; for effect of concurrent DUT on androgen-stimulated VP and SV weights: maximal stimulatory sc dose of androgen ± DUT 1.0 mg/day orally
[5] = test system: recombinant human aromatase; conditions: conditions allowing complete conversion of T to estradiol; ref [13]; cited from earlier work
[6] = test system: castrate rats; conditions: single sc injection 1.2 mg/rat, castrate 22 day-old rats; ref [5] and unpublished observations; cited from earlier work
[7] = test system: rat liver or prostate homogenates; conditions: ref Sundaram et al. [1]; cited from earlier work

## C[C@@H]1C[C@H]2CC(=O)CC[C@@H]2[C@@H]2[C@@H]1[C@@H]1CC[C@H](O)[C@@]1(C)C[C@@H]2C [5α-DHDMA, 5α-dihydroDMA]
[1]; sc 7 days
  androgenic potency as percent of DMA (ventral prostate growth): 30-40%

## C[C@@H]1C[C@H]2CC(=O)CC[C@@H]2[C@H]2CC[C@]3(C)[C@@H](O)CC[C@H]3[C@@H]21 [5α-DHMENT, 5α-dihydroMENT]
[2]
  Binding to ARLBD RBA: 26%

## C[C@]12CCC(=O)C[C@@H]1CC[C@@H]1[C@@H]2CC[C@]2(C)[C@@H](O)CC[C@@H]12 [DHT, 5α-dihydrotestosterone]
[3]; 8 days
  effect of concurrent DUT on serum level of the administered androgen: not significantly different
[4]
  effect of concurrent DUT on androgen-stimulated VP and SV weights: comparable

## C[C@@H]1CC2=CC(=O)CC[C@@H]2[C@@H]2[C@@H]1[C@@H]1CC[C@H](O)[C@@]1(C)C[C@@H]2C [DMA, 7α,11β-dimethyl-19-nortestosterone]
[5]
  aromatization to aromatic A-ring estrogen: not aromatized
[3]; 8 days
  effect of concurrent DUT on serum level of the administered androgen: not significantly different
[4]
  effect of concurrent DUT on androgen-stimulated VP and SV weights: did not affect VP or SV weights
[1]; sc, Fig. 1b
  anabolic activity (stimulation of LA muscle weight), comparison: greater than that of 5α-DHDMA or T

## CCCCCCCCCCC(=O)O[C@H]1CC[C@H]2[C@H]3[C@H]([C@@H](C)C[C@]12C)[C@H]1CCC(=O)C=C1C[C@H]3C [DMAU, dimethandrolone 17β-undecanoate]
[6]
  duration VP and SV growth maintained above castrate levels: about 21 weeks

## C[C@]12C=CC(=O)N[C@@H]1CC[C@@H]1[C@@H]2CC[C@]2(C)[C@@H](C(=O)Nc3cc(C(F)(F)F)ccc3C(F)(F)F)CC[C@@H]12 [DUT, 17β-N-2,5-bis-[trifluoromethyl]-phenylcarbamoyl-4-aza-5a-androstan-1-en-3-one]
[3]; T 0.23 mg sc + DUT 0.1 mg/rat orally, 8 days
  serum DHT levels: 606 ± 111 pg/mL
[3]; T 0.23 mg sc + DUT 1.0 mg/rat orally, 8 days
  serum DHT levels: 235 ± 36 pg/mL
[3]; T 0.23 mg sc + DUT 10 mg/rat orally, 8 days
  serum DHT levels: 56 ± 4 pg/mL
[4]; DUT 10 mg/day orally
  toxicity judged by suppression of body weights: showed evidence of toxicity
[4]; DUT 0.1, 1.0 or 10.0 mg/day orally with T 0.23 mg/day sc
  effect on VP and SV weights in T-treated rats: significantly decreased

## C[C@@H]1CC2=CC(=O)CC[C@@H]2[C@H]2CC[C@]3(C)[C@@H](O)CC[C@H]3[C@@H]21 [MENT, 7α-methyl-19-nortestosterone]
[7]
  5α-reduction: not 5α-reduced
[3]; 8 days
  effect of concurrent DUT on serum level of the administered androgen: significantly decreased
[4]
  effect of concurrent DUT on androgen-stimulated VP and SV weights: comparable

## C[C@H]1C[C@]2(C)[C@@H](O)CC[C@H]2[C@@H]2CCC3=CC(=O)CC[C@@H]3[C@H]21 [MNT, 11β-methyl-19-nortestosterone]
[5]
  aromatization to aromatic A-ring estrogen: not aromatized
[3]; 8 days
  effect of concurrent DUT on serum level of the administered androgen: higher
[4]
  effect of concurrent DUT on androgen-stimulated VP and SV weights: did not affect VP or SV weights

## CCCCCCCCCCCCOC(=O)O[C@H]1CC[C@H]2[C@@H]3CCC4=CC(=O)CC[C@@H]4[C@H]3[C@@H](C)C[C@]12C [MNTDC, 11β-methyl-19-nortestosterone 17β-dodecylcarbonate]
[6]
  duration VP and SV growth maintained above castrate levels: ~14 weeks

## C[C@]12CC[C@H]3[C@@H](CCC4=CC(=O)CC[C@@]43C)[C@@H]1CC[C@@H]2O [T, Testosterone]
[3]; T sc + DUT 1.0 mg/day orally, 8 days
  effect of concurrent DUT on serum DHT in T-treated rats: suppressed to levels observed in castrate vehicle-treated rats
[3]; 8 days
  effect of concurrent DUT on serum level of the administered androgen: significantly elevated
[3]; rats treated sc with 0.23 mg T alone for 8 days, 2 h after final dose
  serum DHT levels: 1,247 ± 106 pg/ml
[4]
  effect of concurrent DUT on androgen-stimulated VP and SV weights: significantly blunted
